Measured values as given in paper PMC4212090, “The comprehensive analysis of DEG/ENaC subunits in Hydra reveals a large variety of peptide-gated channels, potentially involved in neuromuscular transmission” (BMC Biology, 2014).
Each block holds one molecule with its values, some of them ahead of it.

What was measured:
[1] = test system: functional HyNaC heterotrimer; assay: Screen of functional HyNaC heterotrimers in Xenopus oocytes for activation by Hydra-RFamides; format: cell-based, Hydra magnipapillata; conditions: 5 μM peptide; Xenopus oocytes
Protocol: We tested the function of the new HyNaCs by co-expression of different HyNaC subunit combinations in Xenopus oocytes. We screened for functional subunit combinations by application of 5 μM Hydra-RFamide I, a potent agonist of HyNaC2/3/5 [4]. When we expressed an individual HyNaC subunit we could never elicit currents. […] When HyNaC2 was part of the injected cRNA pool, however, Hydra-RFamide I elicited currents. Simultaneous expression of HyNaC2 with a single other HyNaC resulted only in a functional channel when we co-expressed HyNaC2 and HyNaC3; it was already known that HyNaC2 and HyNaC3 form a low-affinity peptide-gated channel.
Dashed line represents the zero current level. Amino acid sequences of Hydra-RFamides I to V are shown at the bottom. HyNaC, Hydra Na^+ channel.
Since Hydra-RFamide II had been shown previously to activate HyNaC2/3/5 [4], we tested Hydra-RFamides II to V for channel activation.
To study the biophysical properties of the new HyNaCs, cRNA of HyNaCs was synthesized in vitro (mMessage mMachine kit, Ambion, Austin, Texas, USA) and injected into Xenopus laevis oocytes of stage V and VI. After injection, oocytes were incubated for one to two days at 19°C in oocyte Ringer’s solution 2 (OR-2), which contained (in mM): 82.5 NaCl, 2.5 KCl, 1.0 Na2HPO4, 1.0 MgCl2, 1.0 CaCl2, 5.0 HEPES, 0.5 g/l PVP, 1,000 U/l penicillin and 10 mg/l streptomycin, NaOH was used to adjust pH to 7.3. Whole cell currents were recorded from defolliculated oocytes by two-electrode voltage-clamp (TEVC) using the amplifier TurboTec 03X (npi electronic GmbH, Tamm, Germany). Standard bath solution (in mM: 140 NaCl, 10 HEPES, 1.8 CaCl2 and 1.0 MgCl2. NaOH was used to adjust pH to 7.4.) was exchanged by a pump driven system combined with the oocyte testing carousel (OTC), which was controlled by the interface OTC-20 [53]. To control the OTC-20 and to record the data to the hard drive, the software CellWorks (version 5.1.1; npi electronic GmbH, Tamm, Germany) was used. Data were sampled at 0.1 to 1 kHz and filtered at 20 Hz. HyNaCs are permeable for Ca^2+, activating an endogenous CaCC [40]. Therefore, unless otherwise indicated, oocytes were injected with 50 nl of 20 mM EGTA 30 to 180 minutes before measurements. Reversal potentials and Ca^2+ permeabilities of HyNaCs were studied as described previously.

HyNaC2/10/7 = HyNaC2/10/7 (Hydra vulgaris (Hydra magnipapillata), UniProt A0A0A0MP61+A0A0A0MP73+A8DZR6); assay: Inhibition of HyNaC2/10/7 currents in Xenopus oocytes (TEVC); format: cell-based; conditions: HyNaC2/10/7
Sequence of HyNaC2/10/7 (A0A0A0MP61 entry or part of it): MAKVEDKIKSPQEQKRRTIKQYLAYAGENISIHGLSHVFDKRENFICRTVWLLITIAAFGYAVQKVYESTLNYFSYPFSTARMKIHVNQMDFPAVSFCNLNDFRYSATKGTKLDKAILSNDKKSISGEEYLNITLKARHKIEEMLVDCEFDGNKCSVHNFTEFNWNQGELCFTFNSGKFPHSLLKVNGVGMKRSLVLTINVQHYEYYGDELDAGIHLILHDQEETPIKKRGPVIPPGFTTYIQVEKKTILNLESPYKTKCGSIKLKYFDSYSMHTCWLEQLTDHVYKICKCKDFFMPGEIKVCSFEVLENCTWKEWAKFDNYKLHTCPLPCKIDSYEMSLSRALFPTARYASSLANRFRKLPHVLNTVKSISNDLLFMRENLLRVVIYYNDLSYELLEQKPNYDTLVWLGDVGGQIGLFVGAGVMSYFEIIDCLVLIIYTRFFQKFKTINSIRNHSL
Sequence of HyNaC2/10/7 (A0A0A0MP73 entry or part of it): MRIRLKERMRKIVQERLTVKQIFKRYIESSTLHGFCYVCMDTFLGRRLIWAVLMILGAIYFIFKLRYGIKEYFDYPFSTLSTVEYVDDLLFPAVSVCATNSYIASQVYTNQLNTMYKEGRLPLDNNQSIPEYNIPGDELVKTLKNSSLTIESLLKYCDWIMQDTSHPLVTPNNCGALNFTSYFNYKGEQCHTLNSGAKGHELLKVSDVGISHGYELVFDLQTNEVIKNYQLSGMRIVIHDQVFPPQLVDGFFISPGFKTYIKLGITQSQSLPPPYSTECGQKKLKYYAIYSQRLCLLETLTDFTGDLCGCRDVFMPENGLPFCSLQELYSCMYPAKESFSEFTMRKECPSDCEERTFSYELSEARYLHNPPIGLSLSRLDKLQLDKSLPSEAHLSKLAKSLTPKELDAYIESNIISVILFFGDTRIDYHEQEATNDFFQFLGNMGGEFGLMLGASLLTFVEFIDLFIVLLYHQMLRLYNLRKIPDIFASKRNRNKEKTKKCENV
Sequence of HyNaC2/10/7 (A8DZR6 entry or part of it): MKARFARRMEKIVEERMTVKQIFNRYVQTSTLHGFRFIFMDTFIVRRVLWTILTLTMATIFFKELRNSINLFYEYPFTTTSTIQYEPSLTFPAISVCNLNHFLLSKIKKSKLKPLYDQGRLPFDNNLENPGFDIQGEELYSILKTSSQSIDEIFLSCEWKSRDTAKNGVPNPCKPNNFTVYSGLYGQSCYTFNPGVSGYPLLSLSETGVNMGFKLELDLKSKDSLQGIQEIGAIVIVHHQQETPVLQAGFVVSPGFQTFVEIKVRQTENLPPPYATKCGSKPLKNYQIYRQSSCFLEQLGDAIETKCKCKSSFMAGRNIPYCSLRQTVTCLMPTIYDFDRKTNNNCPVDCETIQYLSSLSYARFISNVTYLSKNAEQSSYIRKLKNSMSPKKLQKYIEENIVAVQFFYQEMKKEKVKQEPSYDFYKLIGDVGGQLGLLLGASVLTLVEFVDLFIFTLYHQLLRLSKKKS
Protocol: (§1) One of the hallmarks of DEG/ENaCs is the block by the diuretic amiloride.
(§2) Figure 10 Diminazene is a potent inhibitor of HyNaCs. A) Current trace illustrating the concentration-dependent inhibition of HyNaC2/9/7 by diminazene. Block by 100 μM amiloride was used to compare the affinity for diminazene and amiloride. […] Dashed lines represent the zero current level. B) Concentration-response curves showing the concentration-dependent inhibition of HyNaCs by diminazene. HyNaCs, Hydra Na^+ channels.
(§3) To study the biophysical properties of the new HyNaCs, cRNA of HyNaCs was synthesized in vitro (mMessage mMachine kit, Ambion, Austin, Texas, USA) and injected into Xenopus laevis oocytes of stage V and VI. […] Whole cell currents were recorded from defolliculated oocytes by two-electrode voltage-clamp (TEVC) using the amplifier TurboTec 03X (npi electronic GmbH, Tamm, Germany). […]
(§4) EC50 values for Hydra-RFamides I and II as well as IC50 values for diminazene were determined by fits to the Hill equation using IGOR Pro (version 6.06, WaveMetrics, Inc.). Reversal potentials were defined as the first recorded data point, where currents reversed signs from negative to positive. […]

HyNaC2/11/5 = HyNaC2/11/5 (Hydra vulgaris (Hydra magnipapillata), UniProt A0A0A0MP55+A8DZR6+D3UD58); assay: Inhibition of HyNaC2/11/5 currents in Xenopus oocytes (TEVC); format: cell-based; conditions: HyNaC2/11/5
Protocol: as §1, §2, §3, §4

HyNaC2/3/6 = HyNaC2/3/6 (Hydra vulgaris (Hydra magnipapillata), UniProt A0A0A0MP54+A8DZR6+A8DZR7); assay: Inhibition of HyNaC2/3/6 currents in Xenopus oocytes (TEVC); format: cell-based; conditions: HyNaC2/3/6
Sequence of HyNaC2/3/6 (A0A0A0MP54 entry or part of it): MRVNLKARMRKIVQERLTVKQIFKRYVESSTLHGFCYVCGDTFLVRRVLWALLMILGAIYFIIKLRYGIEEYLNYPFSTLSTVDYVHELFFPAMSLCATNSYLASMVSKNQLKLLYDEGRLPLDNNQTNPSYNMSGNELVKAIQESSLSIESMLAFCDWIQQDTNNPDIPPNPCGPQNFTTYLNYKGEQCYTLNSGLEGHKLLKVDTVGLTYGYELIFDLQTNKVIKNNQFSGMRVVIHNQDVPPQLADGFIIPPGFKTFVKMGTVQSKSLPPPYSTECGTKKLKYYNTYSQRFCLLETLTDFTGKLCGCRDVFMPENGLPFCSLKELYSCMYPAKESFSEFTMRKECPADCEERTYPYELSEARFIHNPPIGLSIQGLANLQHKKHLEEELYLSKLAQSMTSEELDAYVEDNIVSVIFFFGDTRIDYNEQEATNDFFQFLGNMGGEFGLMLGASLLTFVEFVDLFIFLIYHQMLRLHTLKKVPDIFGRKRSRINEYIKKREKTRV
Sequence of HyNaC2/3/6 (A8DZR7 entry or part of it): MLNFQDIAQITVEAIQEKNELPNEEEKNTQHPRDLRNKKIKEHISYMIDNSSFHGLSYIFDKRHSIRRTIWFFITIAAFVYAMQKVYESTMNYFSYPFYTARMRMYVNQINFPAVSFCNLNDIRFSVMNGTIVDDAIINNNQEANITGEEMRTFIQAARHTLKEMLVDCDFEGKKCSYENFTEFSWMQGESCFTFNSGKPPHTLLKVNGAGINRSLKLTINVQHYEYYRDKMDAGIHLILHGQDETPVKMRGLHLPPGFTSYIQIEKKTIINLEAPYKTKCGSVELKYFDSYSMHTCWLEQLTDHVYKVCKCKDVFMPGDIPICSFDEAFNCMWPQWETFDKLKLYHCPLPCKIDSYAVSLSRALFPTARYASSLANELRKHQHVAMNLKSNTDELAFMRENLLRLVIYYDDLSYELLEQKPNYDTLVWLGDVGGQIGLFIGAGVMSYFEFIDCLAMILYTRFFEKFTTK
Sequence of HyNaC2/3/6 (A8DZR6 entry or part of it): as the sequence (A8DZR6 entry or part of it) above
Protocol: as §1, §2, §3, §4

HyNaCs = assay: Block of HyNaC currents (HyNaCs in general) in Xenopus oocytes; format: cell-based, Hydra magnipapillata; conditions: most HyNaCs
Protocol: as §1, §2
To study the biophysical properties of the new HyNaCs, cRNA of HyNaCs was synthesized in vitro (mMessage mMachine kit, Ambion, Austin, Texas, USA) and injected into Xenopus laevis oocytes of stage V and VI. After injection, oocytes were incubated for one to two days at 19°C in oocyte Ringer’s solution 2 (OR-2), which contained (in mM): 82.5 NaCl, 2.5 KCl, 1.0 Na2HPO4, 1.0 MgCl2, 1.0 CaCl2, 5.0 HEPES, 0.5 g/l PVP, 1,000 U/l penicillin and 10 mg/l streptomycin, NaOH was used to adjust pH to 7.3. Whole cell currents were recorded from defolliculated oocytes by two-electrode voltage-clamp (TEVC) using the amplifier TurboTec 03X (npi electronic GmbH, Tamm, Germany). […]

Hydra magnipapillata = assay: Feeding reaction (tentacle curling induced by glutathione) of living Hydra; format: in vivo; conditions: 10 μM GSH
Protocol: To find further evidence that amiloride inhibited the feeding reaction via inhibition of HyNaCs, we repeated these experiments with diminazene. Addition of glutathione (GSH; 10 μM final concentration) induced tentacle contractions and animals moved the tentacles to their mouth. After about two minutes, 100% of animals had their tentacles completely curled. […] Although the potency of diminazene in vivo was low, it should be taken into account that septate junctions provide a significant paracellular permeability barrier to the mesogleal space of Hydra. Moreover, it appears that diminazene requires active transport mechanisms for cellular uptake, probably strongly limiting its transcellular transport; amiloride in contrast is, in part, uncharged at neutral pH and has a significant membrane permeability.
Figure 11 Diminazene inhibits the feeding reaction of Hydra magnipapillata . Adult animals were held in plain medium or in medium containing 100, 200 or 300 μM diminazene (Dimi). The feeding response was induced by application of 10 μM glutathione (GSH). The number of animals showing complete tentacle curling was recorded every 30 seconds. *, P <0.05; **, P <0.01; ***, P <0.001.

HyNaC2/4/6 = HyNaC2/4/6 (Hydra vulgaris (Hydra magnipapillata), UniProt A0A0A0MP54+A8DZR6+A8DZR8); assay: Inhibition of HyNaC2/4/6 currents in Xenopus oocytes (TEVC); format: cell-based; conditions: HyNaC2/4/6
Protocol: as §1, §2, §3, §4

HyNaC2/3/5 = HyNaC2/3/5 (Hydra vulgaris (Hydra magnipapillata), UniProt A8DZR6+A8DZR7+D3UD58); assay: Inhibition of HyNaC2/3/5 currents in Xenopus oocytes (TEVC); format: cell-based; conditions: HyNaC2/3/5
Protocol: as §1, §2, §3, §4

HyNaC2/9/7 = HyNaC2/9/7 (Hydra vulgaris (Hydra magnipapillata), UniProt A0A0A0MP48+A0A0A0MP73+A8DZR6); assay: Inhibition of HyNaC2/9/7 currents in Xenopus oocytes (TEVC); format: cell-based; conditions: HyNaC2/9/7
Sequence of HyNaC2/9/7 (A0A0A0MP48 entry or part of it): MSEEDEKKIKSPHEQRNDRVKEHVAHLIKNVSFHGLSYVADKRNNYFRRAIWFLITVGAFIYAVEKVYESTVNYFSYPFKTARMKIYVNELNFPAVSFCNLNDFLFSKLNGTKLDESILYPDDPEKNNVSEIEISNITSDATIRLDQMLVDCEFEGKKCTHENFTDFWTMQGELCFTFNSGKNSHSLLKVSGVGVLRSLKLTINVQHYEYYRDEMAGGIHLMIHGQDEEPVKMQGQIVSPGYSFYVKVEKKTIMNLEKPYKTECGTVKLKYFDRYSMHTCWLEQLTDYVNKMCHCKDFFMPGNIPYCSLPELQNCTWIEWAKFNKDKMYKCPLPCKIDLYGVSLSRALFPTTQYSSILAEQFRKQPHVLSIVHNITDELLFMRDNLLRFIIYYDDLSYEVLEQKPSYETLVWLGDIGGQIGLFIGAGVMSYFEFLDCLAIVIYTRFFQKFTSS
Sequence of HyNaC2/9/7 (A8DZR6 entry or part of it): as the sequence (A8DZR6 entry or part of it) above
Sequence of HyNaC2/9/7 (A0A0A0MP73 entry or part of it): as the sequence (A0A0A0MP73 entry or part of it) above
Protocol: as §1, §2, §3, §4

HyNaC2/3/7 = HyNaC2/3/7 (Hydra vulgaris (Hydra magnipapillata), UniProt A0A0A0MP73+A8DZR6+A8DZR7); assay: Inhibition of HyNaC2/3/7 currents in Xenopus oocytes (TEVC); format: cell-based; conditions: HyNaC2/3/7
Protocol: as §1, §2, §3, §4

[2] = molecular target: HyNaC2/10/7 (Hydra magnipapillata)
[3] = molecular target: HyNaC2/3/7 (Hydra magnipapillata)
[4] = molecular target: HyNaC2/3/5 (Hydra magnipapillata)
[5] = molecular target: HyNaC2/11/5 (Hydra magnipapillata)
[6] = molecular target: HyNaC2/9/7 (Hydra magnipapillata)
[7] = molecular target: HyNaC2/4/6 (Hydra magnipapillata)
[8] = molecular target: HyNaC2/3/6 (Hydra magnipapillata)

Molecule: Hydra-RFamide III
activation of functional HyNaC heterotrimers (current elicited) [1]: did not elicit a current

Molecule: Hydra-RFamide IV
activation of functional HyNaC heterotrimers (current elicited) [1]: did not elicit a current

Molecule: N=C(N)c1ccc(/N=N/Nc2ccc(C(=N)N)cc2)cc1 [diminazene]
IC50 (HyNaC2/10/7): 5400 ± 1450 nM
IC50 (HyNaC2/11/5): 31400 ± 9400 nM
IC50 (HyNaC2/3/6): 90 ± 20 nM
block of HyNaC currents (HyNaCs; 10 μM diminazene): almost completely blocked
potency relative to amiloride (HyNaCs; estimated): > 100 fold
tentacle curling (feeding reaction) (Hydra magnipapillata; 100 μM diminazene in medium): slightly delayed
initiation of tentacles movement (feeding reaction) (Hydra magnipapillata; 200 μM diminazene in medium): more strongly and significantly (P ≤0.01) delayed
feeding reaction (Hydra magnipapillata; 300 μM diminazene in medium): strongly inhibited the feeding reaction
animals with tentacles completely curled (Hydra magnipapillata; 300 μM diminazene in medium, after four minutes): 20%
IC50 (HyNaC2/4/6): 50 ± 20 nM
IC50 (HyNaC2/3/5): 450 ± 90 nM
IC50 (HyNaC2/9/7): 1700 ± 580 nM
IC50 (HyNaC2/3/7): 160 ± 80 nM

EC50 of current activation by Hydra-RFamide I (two-electrode voltage clamp, Xenopus oocytes injected with EGTA); saturation not reached [2]: > 30000 nM
EC50 of current activation by Hydra-RFamide I (two-electrode voltage clamp, Xenopus oocytes injected with EGTA) [3]: 190 nM
EC50 of current activation by Hydra-RFamide I (two-electrode voltage clamp, Xenopus oocytes injected with EGTA) [4]: 3480 nM
EC50 of current activation by Hydra-RFamide I (two-electrode voltage clamp, Xenopus oocytes injected with EGTA) [5]: 13800 nM
EC50 of current activation by Hydra-RFamide I (two-electrode voltage clamp, Xenopus oocytes injected with EGTA) [6]: 40 nM
EC50 of current activation by Hydra-RFamide I (two-electrode voltage clamp, Xenopus oocytes injected with EGTA) [7]: 700 nM
EC50 of current activation by Hydra-RFamide I (two-electrode voltage clamp, Xenopus oocytes injected with EGTA) [8]: 290 nM
Molecule: Hydra-RFamide I (peptide)
